Active and inactive are the calls of the source. No cut-off for these calls is given here.

Experiment [1] deals with Serum amyloid P-component (Homo sapiens) (UniProt P02743). Put plainly: Inhibition of serum amyloid P-component (unknown origin) binding to immobilized amyloid beta 1 to 42 fibrils at 100 umol/L pre-incubated before calcium addition by surface plasma resonance.
Experiment [2] has the same target. Put plainly: Inhibition of serum amyloid P-component (unknown origin) binding to immobilized amyloid beta 1 to 42 fibrils in presence of EDTA followed by re-exposure to SAP and calcium addition and re-exposure to compound at 50 umol/L by surface plasma resonance.
The target is the same in experiment [3]. Put plainly: Inhibition of calcium dependent [125I]serum amyloid P-component (unknown origin) binding to immobilized influenza virus A/Shanghai/24/90 at 20 uM incubated for 2 hrs by fluorescence/electron microscopy relative to control.
The target is the same in experiment [4]. Put plainly: Inhibition of calcium dependent [125I]serum amyloid P-component (unknown origin) binding to immobilized Neisseria meningitidis at 2 uM incubated for 2 hrs by fluorescence/electron microscopy relative to control.
Experiment [5] shares this target. Description: Inhibition of serum amyloid P-component (unknown origin) binding to immobilized amyloid beta 1 to 42 fibrils at 500 umol/L in presence of calcium by surface plasma resonance.
The target is the same in experiment [6]. Put plainly: Inhibition of calcium dependent [125I]serum amyloid P-component (unknown origin) binding to immobilized influenza virus A/Shanghai/24/90 at 200 uM incubated for 2 hrs by fluorescence/electron microscopy relative to control.
Experiment [7] shares this target. Put plainly: Inhibition of calcium dependent [125I]serum amyloid P-component (unknown origin) binding to immobilized Neisseria meningitidis at 200 nM incubated for 2 hrs by fluorescence/electron microscopy relative to control.
Experiment [8] has the same target. Description: Inhibition of calcium dependent [125I]serum amyloid P-component (unknown origin) binding to immobilized influenza virus A/Shanghai/24/90 at 2 uM incubated for 2 hrs by fluorescence/electron microscopy relative to control.
The target is the same in experiment [9]. Description: Inhibition of calcium dependent [125I]serum amyloid P-component (unknown origin) binding to immobilized influenza virus A/Shanghai/24/90 at 200 nM incubated for 2 hrs by fluorescence/electron microscopy relative to control.
Experiment [10] shares this target. Put plainly: Inhibition of calcium dependent [125I]serum amyloid P-component (unknown origin) binding to immobilized Neisseria meningitidis at 20 uM incubated for 2 hrs by fluorescence/electron microscopy relative to control.
For experiment [11] the target is unchanged. Put plainly: Inhibition of calcium dependent [125I]serum amyloid P-component (unknown origin) binding to immobilized influenza virus A/Shanghai/24/90 at 2 mM incubated for 2 hrs by fluorescence/electron microscopy relative to control.
Experiment [12] shares this target. Description: Inhibition of calcium dependent [125I]serum amyloid P-component (unknown origin) binding to immobilized Neisseria meningitidis at 2 mM incubated for 2 hrs by fluorescence/electron microscopy relative to control.
Experiment [13] shares this target. Put plainly: Inhibition of calcium dependent [125I]serum amyloid P-component (unknown origin) binding to immobilized chicken erythrocyte native long chromatin at 20 uM incubated for 2 hrs by gamma counting relative to control.
For experiment [14] the target is unchanged. Put plainly: Inhibition of calcium dependent [125I]serum amyloid P-component (unknown origin) binding to immobilized chicken erythrocyte native long chromatin at 200 nM incubated for 2 hrs by gamma counting relative to control.
The subject of experiment [15] is Homo sapiens. Put plainly: Reduction of serum amyloid P-component in amyloidosis patient at 15 mg, sc bid for 2 months. It is filed as functional.
Experiment [16] deals with Homo sapiens. Description: Reduction of serum amyloid P-component in amyloidosis patient at 10 mg, sc bid for 3 months. It is filed as functional.
Experiment [17] deals with Serum amyloid P-component (Homo sapiens) (UniProt P02743). Put plainly: Inhibition of calcium dependent [125I]serum amyloid P-component (unknown origin) binding to immobilized chicken erythrocyte native long chromatin at 2 mM incubated for 2 hrs by gamma counting relative to control.
Experiment [18] shares this target. Description: Inhibition of calcium dependent [125I]serum amyloid P-component (unknown origin) binding to immobilized Neisseria meningitidis at 200 uM incubated for 2 hrs by fluorescence/electron microscopy relative to control.
Experiment [19] has the same target. Put plainly: Inhibition of calcium dependent [125I]serum amyloid P-component (unknown origin) binding to immobilized chicken erythrocyte native long chromatin at 200 uM incubated for 2 hrs by gamma counting relative to control.
Experiment [20] has the same target. Put plainly: Inhibition of calcium dependent [125I]serum amyloid P-component (unknown origin) binding to immobilized chicken erythrocyte native long chromatin at 2 uM incubated for 2 hrs by gamma counting relative to control.
Experiment [21] has the same target. To be noted: 10 mM.
Description: Inhibition of calcium dependent [125I]serum amyloid P-component (unknown origin) binding to immobilized Neisseria meningitidis at 10 mM incubated for 2 hrs by fluorescence/electron microscopy relative to control

Serum amyloid P-component (Homo sapiens), sequence (P02743 whole entry): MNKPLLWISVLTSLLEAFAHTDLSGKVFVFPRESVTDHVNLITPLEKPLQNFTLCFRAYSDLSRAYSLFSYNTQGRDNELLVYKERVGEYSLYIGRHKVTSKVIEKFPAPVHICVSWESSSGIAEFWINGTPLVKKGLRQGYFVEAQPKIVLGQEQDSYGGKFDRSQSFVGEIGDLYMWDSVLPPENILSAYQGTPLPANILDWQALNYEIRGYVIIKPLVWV

On to `C[C@H](CS)C(=O)N1CCC[C@@H]1C(=O)O`, for which the inhibition entry in experiment [1], in experiment [2] and in experiment [5] was “Active” each time. Also, the inhibition turned out to be 40% in [3]; 42% in experiment [4]; 51% in experiment [6]; 3% in [7]; 30% in experiment [8]; 12% in experiment [9]. For the same molecule, the inhibition in experiment [10] was 50%.
For `O=C(O)[C@H]1CCCN1C(=O)CCCCC(=O)N1CCC[C@@H]1C(=O)O`, the inhibition in experiment [3] was 90%; in experiment [11] it was 98%; in [12] it was 100%; in experiment [4], 61%; in experiment [6], 96%; in experiment [13], 69%. The inhibition in [14] came to 1%; in experiment [7], 5%; in experiment [17], 93%; in experiment [18], 79%; in experiment [8], 81%; in experiment [9], 36%. The inhibition in experiment [19] worked out at 87%; in experiment [10] it was 74%; in experiment [20], 29%. The “inhibition (INH)” value in [15] and in [16] was 95% each time.
Take `O=C(O)CN(CCN(CC(=O)O)CC(=O)O)CC(=O)O`: the inhibition in [21] turned out to be 100%.
For the molecule `O=C(O)[C@H]1CCCN1C(=O)COc1cccc2c(OCC(=O)N3CCC[C@@H]3C(=O)O)cccc12`, the inhibition is 64% in experiment [3]; 80% in [11]; 100% in experiment [12]; 72% in experiment [4]; 76% in experiment [6]; 74% in experiment [13]. For the same molecule, the inhibition in experiment [14] turned out to be 12%; in experiment [7], 30%; in [17] it was 96%; in experiment [18] it was 100%; in experiment [8], 51%; in experiment [9], 23%. The results for the inhibition in [19], in experiment [10] and in experiment [20] were 82%, 81% and 51%, respectively.
On to `C[N+](C)(C)CCOP(=O)([O-])O`, for which the inhibition was 5% in experiment [3]; 3% in experiment [11]; 24% in experiment [12]; 5% in experiment [4]; 5% in experiment [6]; 0% in experiment [13]. Moreover, the inhibition in experiment [14] was determined as 2%; in experiment [7] it was 0%; in experiment [17], 19%; in experiment [18] it was 3%; in experiment [8], 2%; in experiment [9], 0%. Besides, the inhibition in [19] is 3%; in [10], 4%; in experiment [20], 0%.

In general, inhibition refers to how much of the control response was suppressed.

The values are drawn from ChEMBL document CHEMBL3882241, “Compounds inhibiting the binding of sap for treating osteoarthritis” (2006).
